From PMC2845880 (Bioorganic & medicinal chemistry letters, 2010)

Legend:
[1] = test system: Plasmodium falciparum (ring stage and schizont); experiment: In vitro antiparasitic evaluation against Plasmodium falciparum; type: cell-based
[2] = test system: human lung fibroblasts (MRC-5); experiment: Cytotoxicity on human lung fibroblasts; type: cell-based
[3] = test system: T. b. brucei, T. cruzi, Leishmania infantum, Plasmodium falciparum; experiment: In vitro biological evaluation against protozoa; type: cell-based; conditions: in vitro protozoa panel
TbMCA2 = molecular target: T1, TbMCA2 (Trypanosoma brucei brucei, UniProt Q8T8E7); experiment: In vitro inhibition of TbMCA2; type: biochemical; conditions: P1 tail modification / peptoid backbone
T1 sequence (Q8T8E7 1-347): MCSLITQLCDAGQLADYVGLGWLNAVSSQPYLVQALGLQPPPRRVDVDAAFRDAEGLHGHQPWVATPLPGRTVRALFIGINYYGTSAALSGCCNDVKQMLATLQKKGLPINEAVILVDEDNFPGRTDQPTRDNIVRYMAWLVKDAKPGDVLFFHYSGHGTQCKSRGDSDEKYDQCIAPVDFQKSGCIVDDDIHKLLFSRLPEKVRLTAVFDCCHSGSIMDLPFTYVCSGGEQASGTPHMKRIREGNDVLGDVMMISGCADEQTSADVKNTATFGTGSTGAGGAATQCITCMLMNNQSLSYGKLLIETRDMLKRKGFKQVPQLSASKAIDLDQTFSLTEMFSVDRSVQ

Compound	Antiparasitic activity against P. falciparum (in words) [1]	Antiparasitic activity (in words) [3]	also measured
N=C(N)NCCC[C@H](NC(=O)OCc1ccccc1)C(=O)c1nc2ccccc2s1 [Compound 11]	very modest		Cytotoxicity (in words) [2]: without cytotoxicity
NCCCC[C@H](NC(=O)OCc1ccccc1)C(=O)c1nc2ccccc2s1 [Compound 16]		modest antiparasitic activities	
Cn1c(C(=O)[C@H](CCCNC(=N)N)NC(=O)OCc2ccccc2)nc2ccccc21 [Compound 14]	very modest		
N#C[C@H](CCCNC(=N)N)NC(=O)OCc1ccccc1 [Compound 1]		no antiparasitic activity	
N#C[C@H](Cc1ccc(N)cc1)NC(=O)OCc1ccccc1 [Compound 2]			Activity on TbMCA2 (in words) (TbMCA2): inactive
N=C(N)NCCCC[C@H](NC(=O)OCc1ccccc1)C(=O)c1nc2ccccc2s1 [Compound 17]		modest antiparasitic activities	
N=C(N)NCCC[C@@H](/C=C/S(=O)(=O)c1ccccc1)NC(=O)OCc1ccccc1 [Compound 15]	modest antiparasitic activity		
N#C[C@H](Cc1ccc(NC(=N)N)cc1)NC(=O)OCc1ccccc1 [Compound 3]			Activity on TbMCA2 (in words) (TbMCA2): inactive
